We go through eight molecules from patent US20250171821A1, “HIF-1 ACTIVATORS AND USES THEREOF” (Ramot at Tel-Aviv University Ltd., priority 2022, published 2025).

Where a name gives a salt, the structure may show the parent alone. Where no end group is shown, it is not given here.

One data set relates to MG-63 cells. In words: Collagen-I immunofluorescence in MG-63 cells treated with iron chelator. Format: cell-based, human. The conditions noted are these: 48 hours. How it is done:
For microscopy images, cells were cultured in a 24-well plate and incubated with medium supplemented with the indicated concentrations of the treating entity (e.g., peptides or DFO) at 37° C. under 5% CO2. Cells were then washed additional three times with cold phosphate-buffered saline (PBS), following a 20 minute fixation in a 4% paraformaldehyde (PFA) in PBS and extensively washed three times with PBS to remove the PFA, followed by a 20 minute wash with blocking and penetration solution (PBS with 0.1% Triton X-100 and 2% BSA). Fixed cells were incubated with antibodies for 1 hour at 25° C., washed, and developed together with fluorescence-tagged secondary antibodies (Alexa 488 and 647, Abcam). Cell nuclei were stained with 1 mg/mL 4′,6-diamidino-2-phenylindole (DAPI Staining Solution ab228549, Abcam). Images were taken using a ZEISS LSM 900 in confocal mode, using Zen 3.1. Fluorescence readouts were obtained at ex/em of 358/461, 495/519 nm, and 652/668 nm for blue, green, and red, respectively.
The present inventors have incubated MG-63 cells with deferoxamine mesylate (DFO), an iron chelator, to explore the possibility of enhancing Collagen-I levels in these cells.

The subject of data set [1] is NIH/3T3 cell line. In words: Collagen type 1 immunofluorescence in NIH/3T3 cells (Incucyte). Format: cell-based, mouse. Particulars: 48 hours; for concentrations with significant increase of collagen type 1 normalized to number of cells vs untreated cells: serial dilution 5-0.02 μM, one-way ANOVA. How it is done: (§1) Embryonic mouse fibroblast NIH/3T3 cell line (ATCC) were seeded at a concentration of 50*10^3 cells/well on 96 well glass bottom plate (P96-1.5H-N, Cellvis) for the immunofluorescence experiment and on cell culture microplate, 96 well, PS, F-Bottom (655090, greiner) for the viability experiment. The cells were cultured with Dulbecco's modified Eagle's medium (DMEM) supplemented with 10% fetal calf serum, 1% Penicillin-Streptomycin solution and 1% L-glutamine (All purchased from Rhenium). At 24 hours post seeding, cells were treated for another 48 hours by replacing them with the cell medium supplemented with a serial dilution (5-0.02 μM, factor dilution of 2) of the ML228, Daprodustat, Enarodustat, Molidustat, Vadadustat or Roxadustat molecules dissolved in DMSO. The final DMSO concentration in the cell medium was 0.01%. Cells were maintained in an incubator at 37° C. in a humidified atmosphere containing 5% CO2.
At 48 hours post treatment with either Daprodustat, Enarodustat, Molidustat, Vadadustat or Roxadustat, cells were fixed for 10 minutes together with their media with 8% paraformaldehyde (PFA, Electron Microscopy Sciences) dissolved in phosphate-buffered saline (PBS, Invitrogen) to a final concentration of 4% PFA, without any wash to avoid cells detachment from the glass. Cells were briefly washed four times with ice-cold PBS to remove the PFA and kept overnight at 4° C. The following day, a blocking solution which contains 1.5% Bovine Serum Albumin (Sigma Aldrich) dissolved in PBS was applied for 30 minutes, followed by an overnight incubation at 4° C. with recombinant rabbit anti-mouse Collagen-I 1° antibody (primary Ab) [EPR24331-53] (ab270993, Abcam), dissolved in the blocking solution (1:1000 dilution). The following day, cells were washed for 3 times with PBS (5 minutes each), followed by immunostaining with goat anti-rabbit IgG H&L (Alexa Fluor® 488) 2° antibody (secondary Ab) (ab150077, Abcam) dissolved in blocking solution (1:1000 dilution). Cells were washed again for 3 times with PBS (5 minutes each), stained for 30 minutes with DRAQ5™ (ab108410, Abcam) for nuclei staining dissolved in PBS (1:1000 dilution), and washed once again with PBS. For the ML228 experiment, cells were washed with PBS before applying 4% PFA dissolved in PBS. Then, fixed cells were additionally permeabilized with 0.2% Triton™ X-100 (Merck) dissolved in PBS, additionally stained with Phalloidin-Atto 594 (51927, Sigma Aldrich) for F-Actin staining for 1 hour (1:250 dilution) together with the aforementioned secondary antibody, followed by 10 minutes incubation with DAPI staining solution (ab228549, Abcam) for nuclei staining dissolved in PBS (1:1000 dilution).
Images were taken using a ZEISS LSM 900 in wide-field or in the LSM confocal detection mode (ML228 experiment), using Zen 3.1. Fluorescence readouts were obtained at excitation/emission: 353/465 nm (DAPI), 493/517 nm (Collagen-I), 590/618 (F-Actin) and 647/683 nm (DRAQ5) using a Plan-Apochromat 20×/0.8 M27 objective.
Image acquisition and quantification were performed by Incucyte SX5 (Sartorius) using software version 2022B Rev2. A standard scan was done for 9 images per well using 20× objective, 2 optical modules (green at excitation/emission of 453-485 nm/494-533 nm in 300 msec acquisition time, and near-IR at excitation/emission of 648-674 nm/685-756 nm in 400 msec acquisition time, including Phase channel) following immunofluorescence protocol. For the image analysis, 2-6 replicates per condition were used. Using the Basic Analyzer mode, “Phase Object Confluence (%)” was acquired using the Phase channel. This measurement is the percentage of the image area occupied by cells. “Total Collagen-I Integrated Intensity Per Image (GCU×μm^2/Image)” was acquired using the green optical module. GCU stands for Green calibrated Unit, while this measurement is the total sum of the Collagen-I objects' fluorescent intensity in the image. “#Cells (Per image)” was acquired by the near-IR optical module. […]

Data set [2] concerns NIH/3T3 cell line. In words: Cell confluence / number of cells per image in NIH/3T3 cells. Particulars: 48 hours; for toxicity suggested by number of cells: 5-0.02 μM. Format: cell-based, mouse. How it is done: as §1
Image acquisition and quantification were performed by Incucyte SX5 (Sartorius) using software version 2022B Rev2. A standard scan was done for 9 images per well using 20× objective, 2 optical modules (green at excitation/emission of 453-485 nm/494-533 nm in 300 msec acquisition time, and near-IR at excitation/emission of 648-674 nm/685-756 nm in 400 msec acquisition time, including Phase channel) following immunofluorescence protocol. For the image analysis, 2-6 replicates per condition were used. Using the Basic Analyzer mode, “Phase Object Confluence (%)” was acquired using the Phase channel. This measurement is the percentage of the image area occupied by cells. “Total Collagen-I Integrated Intensity Per Image (GCU×μm^2/Image)” was acquired using the green optical module. GCU stands for Green calibrated Unit, while this measurement is the total sum of the Collagen-I objects' fluorescent intensity in the image. “#Cells (Per image)” was acquired by the near-IR optical module. This measurement was calculated by counting the number of nuclei per image.
Multiple comparisons were performed by ordinary one-way ANOVA followed by Dunnett's post-hoc statistical hypothesis for comparing each condition mean to the control mean. Statistical analysis was done using GraphPad Prism version 10.0.0 for Windows, GraphPad Software, Boston, Massachusetts USA, worldwideweb(dot)graphpad(dot)com. For statistical analysis, significance was set as (*) p≤0.05; (**) p≤0.01; (***) p≤0.001; (****) p≤0.0001 and (ns; not significant) p>0.05.

In data set [3] the target is T1, PHD2/EGLN1 (HIF-prolyl hydroxylase 2) (human, UniProt Q9GZT9 181-426).
T1 construct: The protein was expressed as a cleavable GST fusion and the eluate of the GST column was used; also called PHD enzyme; PHD protein
T1 sequence (Q9GZT9 other isoform, or with tags, fused parts or gaps limits assumed): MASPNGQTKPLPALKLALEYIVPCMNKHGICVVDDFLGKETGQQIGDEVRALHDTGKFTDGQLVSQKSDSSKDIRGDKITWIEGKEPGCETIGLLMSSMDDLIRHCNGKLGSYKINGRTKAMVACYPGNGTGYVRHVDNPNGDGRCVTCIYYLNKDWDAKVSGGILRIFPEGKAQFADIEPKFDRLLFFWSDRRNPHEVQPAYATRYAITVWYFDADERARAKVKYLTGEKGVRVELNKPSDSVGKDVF
In words: fluorescence polarization; PHD protein titrated into 200 nM FITC-labeled peptide; single site fit. How it is done: Fluorescence polarization (FP) assay—Fluorescence Polarization (FP) measurements were performed on samples arrayed in a 96-well plate using Biotek HybridH1 reader equipped with a polarized optic system. Binding assay was evaluated by adding variable concentrations of PHD protein into 200 nM of FITC-labeled peptides. Experimental polarization data were fitted using GraphPad Prism9 into a single site binding model, with error bars representing standard deviation.

With `CC(=O)N(O)CCCCCNC(=O)CCC(=O)N(O)CCCCCNC(=O)CCC(=O)N(O)CCCCCN` [DFO, Deferoxamine mesylate], in the data set with MG-63 cells (normalized to β-tubulin), the “DFO concentration giving maximal Collagen-I levels” value was 10 to 20 µM. In the data set with MG-63 cells (even at low DFO concentrations such as 0.15 μM), the Collagen-I production entry is given as “increased Collagen-I production”.
For `O=C(O)CNC(=O)C1C(=O)N(C2CCCCC2)C(=O)N(C2CCCCC2)C1=O` [Daprodustat, N-[(1,2-Dicyclohexylhexahydro-2,4,6-trioxo-5-pyrimidinyl)carbonyl]glycine], the “concentrations with significant increase of collagen type 1 normalized to number of cells vs untreated cells” value in the data set on NIH/3T3 cell line [1] was 0.31 to 5 µM. Further, the “number of cells compared to untreated cells” value with NIH/3T3 cell line [2] (0.08 μM Daprodustat, p<0.0001) is given as “lower number of cells”; in the data set with NIH/3T3 cell line [2] (serial dilution 5-0.02 μM), “no significant difference”. Further, the “toxicity suggested by number of cells” value in the data set on NIH/3T3 cell line [2] is reported as “no toxicity”.
For `O=C(O)CNC(=O)c1c(O)cc(CCc2ccccc2)n2ncnc12` [Enarodustat, N-[[7-Hydroxy-5-(2-phenylethyl)[1,2,4]triazolo[1,5-a]pyridin-8-yl]carbonyl]glycine], the “concentrations with significant increase of collagen type 1 normalized to number of cells vs untreated cells” value in the data set on NIH/3T3 cell line [1] fell in the range of 0.31 to 5 µM. The “toxicity suggested by number of cells” value in the data set with NIH/3T3 cell line [2] is on record as “no toxicity”. Also, in the data set with NIH/3T3 cell line [2] (serial dilution 5-0.02 μM), the “number of cells compared to untreated cells” value was “no significant difference”.
For `O=c1c(-n2ccnn2)c[nH]n1-c1cc(N2CCOCC2)ncn1` [Molidustat, 1,2-Dihydro-2-[6-(4-morpholinyl)-4-pyrimidinyl]-4-(1H-1,2,3-triazol-1-yl)-3H-pyrazol-3-one] the same measures were 0.63 to 5 µM, “toxic effect” and “significantly lower”.
As to `Cc1nc(C(=O)NCC(=O)O)c(O)c2ccc(Oc3ccccc3)cc12` [Roxadustat, N-[(4-Hydroxy-1-methyl-7-phenoxy-3-isoquinolinyl)carbonyl]glycine], the “concentrations with significant increase of collagen type 1 normalized to number of cells vs untreated cells” value in the data set on NIH/3T3 cell line [1] was in the range of 0.08 to 5 µM. Further, the “toxicity suggested by number of cells” value in the data set on NIH/3T3 cell line [2] is on record as “no toxicity”. For the same molecule, the “number of cells compared to untreated cells” value in the data set with NIH/3T3 cell line [2] (serial dilution 5-0.02 μM) is reported as “significantly higher”.
Take `O=C(O)CNC(=O)c1ncc(-c2cccc(Cl)c2)cc1O` [Vadadustat, N-[[5-(3-Chlorophenyl)-3-hydroxy-2-pyridinyl]carbonyl]glycine]: the “collagen type 1 expression compared to untreated cells” value in the data set with NIH/3T3 cell line [1] (0.02-5 μM) is on record as “significant increase”. Further, the “toxicity suggested by number of cells” value in the data set with NIH/3T3 cell line [2] was “no toxicity”. Moreover, in the data set with NIH/3T3 cell line [2] (serial dilution 5-0.02 μM), the “number of cells compared to untreated cells” value is “significantly higher”.

B1: EPAS1 peptide (FITC-labeled) (peptide)
peptide: ELDLETLAPYIPMDGEDFQL
modifications: also: FITC label, position not given here
notes: The FP assay used 200 nM of FITC-labeled peptide; also called EPAS1-derived peptide
As for B1, in data set [3], binding was characterised by a dissociation constant (Kd) of 4 µM.

B2: HIF peptide (FITC-labeled) (peptide)
peptide: DLDLEALAPYIPADDDFQLR
modifications: also: FITC label, position not given here
notes: The FP assay used 200 nM of FITC-labeled peptide; also called HIF1 peptide
Turning to B2, in data set [3], the Kd – broadly, the free concentration of one partner at which half of the binding sites on the other are occupied at equilibrium, for simple one-to-one binding – is 7 µM.
